Here are results for 18 compounds from article PMC9457583, “New Chemicals Suppressing SARS-CoV-2 Replication in Cell Culture” (Molecules, 2022).

Usually EC50 stands for the concentration that produces a half-maximal response. A word on the melting point: it is the temperature of the solid-liquid transition. As a reminder, the CC50 is the concentration at which the toxic effect on the cells reaches its halfway point. The IC50 is the concentration that gives 50% inhibition.

Data set [1] relates to SARS-CoV-2. The data set can be described thus: microbe, parasite or virus in culture. Format: cell-based.
Data set [2] has as its system SARS-CoV-2. The settings on record: SARS-CoV-2-infected Vero E6/TMPRSS2 cells; cited from earlier work.
For data set [3], the system named is SARS-CoV-2. Further details: method as in PMID 32855413. As to conditions: cited from earlier work.
On the set-up of data set [4]: method as in PMID 32855413. The settings on record: read-out: CC50 (cytotoxicity); cited from earlier work.
Another data set concerns SARS-CoV-2 Mpro. The settings on record: read-out: IC50 (Mpro); cited from earlier work.
The test system of data set [5] is SARS-CoV-2. Set-up: method as in PMID 35287429. The settings on record: read-out: EC50 (SARS-CoV-2 replication in cell culture); cited from earlier work.
Data set [6] concerns SARS-CoV-2. Set-up: method as in PMID 34726479. The settings on record: Vero E6 cell culture; read-out: EC50 (virus replication); cited from earlier work.
The subject of data set [7] is SARS-CoV-2. Set-up: method as in PMID 33062953. The settings on record: cited from earlier work.
The mark [8] stands for this setting: Severe acute respiratory syndrome coronavirus 2, Vero C1008, Vero E6 cells, MOI 0.1, 96 h, MTT, read-out: EC50.
The mark [9] stands for this setting: Severe acute respiratory syndrome coronavirus 2, Vero C1008, 96 h.

Molecules are shown by their SMILES. Read-outs that look alike come from different tables or passages of the source. Peptide text beside a SMILES is read from it. * marks the point of attachment. Cbz = O=C(OCc1ccccc1)*

Regarding `Cc1cc2c(cc1C)N(C(=O)COc1ccc3ccccc3c1)C(C)(C)c1ssc(=S)c1-2` [Compound 3a], the melting point was in the range of 189 to 190 °C. For the same compound, in the data set with SARS-CoV-2 [1] (setting [8]), the EC50 amounted to 510 ± 410 nM. `Cc1ccc2c(c1)N(C(=O)COc1ccc3ccccc3c1)C(C)(C)c1ssc(=S)c1-2` [Compound 3b] registered a melting point above 144 °C. Also, in the data set on SARS-CoV-2 [1] (setting [8]), the EC50 was determined as 1160 ± 230 nM. The corresponding values for `Cc1ccc2c(c1)-c1c(ssc1=S)C(C)(C)N2C(=O)COc1ccc2ccccc2c1` [Compound 3c] are 153 to 154 °C and 2710 ± 910 nM. The corresponding values for `COc1ccc2c(c1)-c1c(ssc1=S)C(C)(C)N2C(=O)COc1ccc2ccccc2c1` [Compound 3d] are 136 to 137 °C and 9400 ± 1670 nM.

In the case of `Clc1ccc2nc(OCc3ccccc3Cl)c(N3CCOCC3)c(-c3ccccc3)c2c1` [Compound 6a, 6-chloro-2-[(2-chlorobenzyl)oxy]-3-(morpholin-4-yl)-4-phenylquinoline], in the data set with SARS-CoV-2 [1] (setting [8]), the EC50 turned out to be 4770 ± 1870 nM. In turn, `O=c1[nH]c2ccc(Cl)cc2c(-c2ccccc2)c1SC(=S)N1CCCCC1` [Compound 6b, 6-chloro-2-oxo-4-phenyl-1,2-dihydroquinolin-3-yl piperidine-1-carboditioate] yielded an EC50 with SARS-CoV-2 [1] (setting [9]) of 7620 ± 1840 nM. As for `CC1CCCCN1C(=S)Sc1c(-c2ccccc2)c2cc(Cl)ccc2[nH]c1=O` (stereo not drawn) [Compound 6c, 6-chloro-2-oxo-4-phenyl-1,2-dihydroquinolin-3-yl 2-methylpiperidine-1-carboditioate], the melting point was in the range of 265 to 266 °C. Besides, in the data set with SARS-CoV-2 [1] (setting [9]), the EC50 was determined as 22400 ± 2580 nM. `c1ccc2cc(Nc3nc(Nc4ccc5ccccc5c4)nc(N4CCCCCC4)n3)ccc2c1` [Compound 9a, 6-(azepan-1-yl)-N,N ^′ -di(naphthalen-2-yl)-1,3,5-triazine-2,4-diamine] displayed a melting point of 164 to 165 °C. For the same compound, in the data set with SARS-CoV-2 [1] (setting [8]), the EC50 is 18200 ± 4200 nM. For `c1ccc(Nc2nc(Nc3ccccc3)nc(N3CCCCCC3)n2)cc1` [Compound 9b, 6-(azepan-1-yl)-N,N’-diphenyl-1,3,5-triazine-2,4-diamine] the same measures were 160 to 161 °C and 1040 ± 260 nM.

As to `CN1CCN(c2nc(Nc3cccc4ccccc34)nc(Nc3cccc4ccccc34)n2)CC1` [Compound 9c, 6-(4-methylpiperazin-1-yl)-N,N ^′ -di(naphthalen-1-yl)-1,3,5-triazine-2,4-amine], the melting point lay within 160 to 161 °C. Further, the EC50 in the data set with SARS-CoV-2 [1] (setting [8]) is 19600 ± 2940 nM. For the compound `Cn1cnc(Cn2c(=O)[nH]/c(=N\c3cc4cn(C)nc4cc3Cl)n(Cc3cc(F)c(F)cc3F)c2=O)n1` [Compound S-217622], the EC50 in the data set with SARS-CoV-2 [2] was 370 nM.

As to `CC(C)C[C@H](NC(=O)OCc1ccccc1)C(=O)N[C@H](C=O)CC1CCNC1=O` (stereo partly drawn) [GC–373], the EC50 in the data set on SARS-CoV-2 [3] is around 1000 nM. The CC50 in [4] was above 200000 nM. In addition, the IC50 with SARS-CoV-2 Mpro was […]. Regarding `CC(C)C[C@H](NC(=O)OCc1ccccc1)C(=O)N[C@@H](CC1CCNC1=O)C(O)S(=O)(=O)O` (stereo partly drawn) [GC–376], the EC50 with SARS-CoV-2 [3] was around 1000 nM. Further, in data set [4], the CC50 was above 200000 nM. Besides, the IC50 in the data set with SARS-CoV-2 Mpro was around 300 nM. Take `CC(C)C[C@@H](C=O)NC(=O)[C@H](CC(C)C)NC(=O)[C@H](CC(C)C)NC(=O)OCc1ccccc1` [MG–132] (Cbz-Leu-Leu-Leu-aldehyde): in the data set on SARS-CoV-2 [5], the EC50 was 100 nM. Take `CC(C)(C)[C@H](NC(=O)C(F)(F)F)C(=O)N1C[C@H]2[C@@H]([C@H]1C(=O)N[C@H](C#N)C[C@@H]1CCNC1=O)C2(C)C` [PF-07321332, nirmatrelvir]: the EC50 in the data set on SARS-CoV-2 [6] was 85.3 nM.

Consider `Cn1nc(-c2ccc(C(F)(F)F)cc2)nc2c(=O)n(C)c(=O)nc1-2` [Valrycin B], for which the “EC50 (virus replication in cell culture)” value in the data set with SARS-CoV-2 [7] is given as “submicromolar”. In the case of `CC(NC(=O)C(Cc1ccccc1)NC(=O)OCc1ccccc1)C(=O)F` (stereo not drawn) [Z-FA-FMK], the “EC50 (virus replication in cell culture)” value in the data set on SARS-CoV-2 [7] was “submicromolar”. Take `CCC(CC)COC(=O)[C@H](C)N[P@](=O)(OC[C@H]1O[C@@](C#N)(c2ccc3c(N)ncnn23)[C@H](O)[C@@H]1O)Oc1ccccc1` [remdesivir, reference compound]: the EC50 in the data set on SARS-CoV-2 [1] (setting [8]) turned out to be 2940 ± 670 nM.
